Test results: US4754059A, “Omega cycloalkyl prostaglandins” (G. D. Searle & Co., priority 1984, dated 1988)

Legend:
[1] = tested on: gastric secretions; assay: Dog gastric antisecretory activity (histamine-stimulated, Thomas-type gastric cannula); format: in vivo, beagle dogs; settings: for ED50: Canis lupus familiaris, po, histamine stimulation
Procedure: The standard test used to detect gastric antisecretory activity is described as follows.
Adult female beagle dogs weighing 6-11 kg. are prepared with whole stomach simple Thomas-type gastric cannulas.
Following full recovery from the surgical implantation of the gastric cannula, the dogs are trained to stand quietly, though fully conscious, in Pavlov-type dog restraining slings and are accustomed to intravenous histamine infusion.
Experiments are initiated by depriving dogs of food, but not water, for 18 hours. With an initial infusion of 0.15M sodium chloride, at a constant rate of 6.5 ml/hr, gastric secretions collected in plastic bottles affixed to the cannula, are taken at 15 minute intervals and measured for volume to the nearest 0.1 ml. Following a 30-45 minute basal secretion period, the collection bottles are removed, dosing plugs inserted, and compound administered. A 3.0 ml saline wash follows immediately.
After the end of a 30 minute drug absorption period the stomachs are emptied, collection bottles again attached, and the collections resumed at 30 minute intervals. Simultaneously, the saline infusion is replaced with a continuous intravenous infusion of histamine dihydrochloride in saline at 15 ug/kg/hr for four hours. Gastric samples are analysed for pH and titratable acidity determinations.
An analysis of the data for each measured or derived variable compares observations recorded following treatment with variables obtained for the same group of animals receiving histamine stimulation alone. Three parameters, gastric juice volume (ml/30 min), acid concentration (mEq/L), and total acid output (mEq/30 min) are analyzed individually. The data thus obtained are analyzed using interval-by-interval paired Student's t-test or two-way analysis of variance to achieve an indication of potency and duration of action. Percentage inhibition is calculated using pooled mean values for the four hour treatment period. Duration of activity is defined as the length of time of significant inhibition.

[2] = Diarrheogenic activity in rats; format: in vivo, Charles River rats
Procedure: Diarrhea is an undesirable side effect commonly associated with antisecretory and cytoprotective prostaglandins.
Groups of six adult male Charles River rats, weight range 180 to 200 grams, are fasted for 24 hours prior to administering the test substance. The prostaglandin to be tested is administered intragastrically in iso-osmotic phosphate buffer at a volume of 10 ml/kg at doses ranging from 100 to 3000 microgram/kg. Control animals receive only the vehicle. The rats are placed in individual wire mesh cages and the trays lined with brown paper. Diarrhea is assessed at hourly intervals on an all or none basis for up to eight hours after administration of the prostaglandin. Diarrhea is defined as any loose or watery stool. ED50 values are assessed for each hourly diarrheogenic response.

[3] = tested on: lower esophageal sphincter; assay: Contraction of the lower esophageal sphincter; settings: no method given
[4] = intragastric administration, dog

SMILES	Dog antisecretory activity (in words) ([1]; intragastric administration, dog, doses 0.3 and 1.0)	ED50 [1, 4] [µg/kg]	diarrheogenic properties (in words) [2]	property of contracting the lower esophageal sphincter [3]	antisecretory activity (in words) [1]
COC(=O)CCC/C=C\C[C@H]1C(=O)C[C@@H](O)[C@@H]1/C=C/CC(C)(O)CCC1CCCC1 (relative stereo) [Compound II, reference compound]	Inactive at 0.3 and 1.0	–	–	–	–
COC(=O)CC/C=C\CC[C@H]1C(=O)C[C@@H](O)[C@@H]1/C=C/CC(C)(O)CCC1CC1 (relative stereo) [Example 1]	–	0.2	–	–	–
COC(=O)CC/C=C\CC[C@H]1C(=O)C[C@@H](O)[C@@H]1/C=C/CC(C)(O)CCC1CCCC1 (relative stereo) [Example 2]	–	0.3	low	contracting the lower esophageal sphincter	potent
COC(=O)CC/C=C\CC[C@H]1C(=O)C[C@@H](O)[C@@H]1/C=C/CC(C)(O)CCC1CCC1 (relative stereo) [Example 3]	–	–	low	–	potent
COC(=O)CC/C=C\CC[C@H]1C(=O)C[C@@H](O)[C@@H]1/C=C/CC(C)(O)CCC1(C)CC1 (relative stereo) [Example 7, methyl 7-[3α-hydroxy-2β-4-hydroxy-4-methyl-6-(1-methylcyclopropyl)-1-trans-hexenyl-5-oxocyclopentane]-1α-hept-4-cis-enoate]	–	0.3	–	–	–
